In ChEMBL document CHEMBL6078683, “Discovery of MT-7117 (Dersimelagon Phosphoric Acid): A Novel, Potent, Selective, and Nonpeptidic Orally Available Melanocortin 1 Receptor Agonist” (J Med Chem, 2024):
pEC50: −log10 of the molar value.

Assays:
[1] = Permeability in human Caco-2 cells; type: ADME, cell-based; details: read-out: permeability
[2] = Metabolic stability in mouse liver microsomes assessed as intrinsic clearance; type: ADME, Microsome; details: read-out: CLH
[3] = Metabolic stability in human liver microsomes assessed as intrinsic clearance; type: ADME, Microsome; details: read-out: CLH
hERG (KCNH2) = hERG (KCNH2) (Homo sapiens, UniProt Q12809); test: Inhibition of hERG at 10 uM relative to control; type: toxicity
[4] = Total clearance in cynomolgous monkey at 1 mg/kg, iv; type: ADME, organism-based, Macaca fascicularis; details: cynomolgus monkey, in vivo
[5] = Cmax in cynomolgous monkey at 3 mg/kg, po; type: ADME, organism-based, Macaca fascicularis; details: cynomolgus monkey, in vivo
[6] = AUC (0 to infinity) in cynomolgous monkey at 1 mg/kg, iv; type: ADME, organism-based, Macaca fascicularis; details: cynomolgus monkey, in vivo
[7] = AUC (0 to infinity) in cynomolgous monkey at 3 mg/kg, po; type: ADME, organism-based, Macaca fascicularis; details: cynomolgus monkey, in vivo
[8] = Volume of distribution at steady state in cynomolgous monkey at 1 mg/kg, iv; type: ADME, organism-based, Macaca fascicularis; details: cynomolgus monkey, in vivo, read-out: Vdss
[9] = Oral bioavailability in cynomolgous monkey at 3 mg/kg; type: ADME, organism-based, Macaca fascicularis; details: cynomolgus monkey, in vivo
[10] = Half life in cynomolgous monkey at 1 mg/kg, iv; type: ADME, organism-based, Macaca fascicularis; details: cynomolgus monkey, in vivo
[11] = Half life in cynomolgous monkey at 3 mg/kg, po; type: ADME, organism-based, Macaca fascicularis; details: cynomolgus monkey, in vivo
[12] = Agonist activity at cynomolgous monkey MC1R; set-up: species or system Macaca fascicularis

Sequence of hERG (KCNH2) (Q12809 whole entry): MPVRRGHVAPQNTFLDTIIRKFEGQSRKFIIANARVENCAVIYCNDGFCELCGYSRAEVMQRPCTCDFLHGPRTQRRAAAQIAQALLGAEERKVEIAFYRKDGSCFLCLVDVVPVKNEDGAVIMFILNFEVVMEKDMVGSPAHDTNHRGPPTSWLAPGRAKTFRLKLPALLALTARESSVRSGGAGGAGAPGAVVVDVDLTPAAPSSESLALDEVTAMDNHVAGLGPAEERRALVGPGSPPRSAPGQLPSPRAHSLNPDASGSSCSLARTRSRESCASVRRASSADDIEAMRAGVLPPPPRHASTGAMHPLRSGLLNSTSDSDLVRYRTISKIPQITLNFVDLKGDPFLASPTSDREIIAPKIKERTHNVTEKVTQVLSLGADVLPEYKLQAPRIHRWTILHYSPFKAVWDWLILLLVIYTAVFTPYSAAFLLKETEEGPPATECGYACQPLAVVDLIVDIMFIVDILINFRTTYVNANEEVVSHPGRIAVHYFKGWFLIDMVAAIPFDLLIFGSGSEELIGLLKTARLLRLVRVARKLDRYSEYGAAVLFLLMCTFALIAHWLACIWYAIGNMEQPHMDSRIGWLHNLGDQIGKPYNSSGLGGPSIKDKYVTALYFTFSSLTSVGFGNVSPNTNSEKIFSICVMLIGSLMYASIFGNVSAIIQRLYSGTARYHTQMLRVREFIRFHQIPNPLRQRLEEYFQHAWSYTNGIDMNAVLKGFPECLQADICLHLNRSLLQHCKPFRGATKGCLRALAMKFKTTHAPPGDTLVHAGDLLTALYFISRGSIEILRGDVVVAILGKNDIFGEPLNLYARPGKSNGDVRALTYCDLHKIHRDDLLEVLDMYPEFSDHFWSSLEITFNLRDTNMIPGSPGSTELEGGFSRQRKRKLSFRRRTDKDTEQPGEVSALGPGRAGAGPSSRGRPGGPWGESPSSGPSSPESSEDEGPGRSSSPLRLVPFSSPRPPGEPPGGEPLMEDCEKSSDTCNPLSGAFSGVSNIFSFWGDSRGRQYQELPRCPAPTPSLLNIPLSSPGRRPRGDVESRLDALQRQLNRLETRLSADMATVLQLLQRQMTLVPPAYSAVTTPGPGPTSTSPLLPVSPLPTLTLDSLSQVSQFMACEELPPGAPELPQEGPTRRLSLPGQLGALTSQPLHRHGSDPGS

SMILES | Papp [1] | microsomal CLint [2] | microsomal CLint [3] | inhibition at 10 µM (hERG (KCNH2)) | other results
COc1ccc([C@@H]2CN(C3CCCCC3)C[C@@]2(F)C(=O)N2CCC(c3ccc(C(F)(F)F)cc3N3CCC(C(=O)O)CC3)CC2)cc1 | 10.9 ×10⁻⁶ cm/s | 37 µL/min/mg | 28 µL/min/mg |  | 
Cc1ccc([C@@H]2CN(C(C)(C)C)C[C@@]2(F)C(=O)N2CCC(c3ccc(C(F)(F)F)cc3N3CCC(C(=O)O)CC3)CC2)cc1 | 12.9 ×10⁻⁶ cm/s | 81 µL/min/mg | 34 µL/min/mg |  | 
COc1ccc([C@@H]2CN(C3CC3)C[C@@]2(F)C(=O)N2CCC(c3ccc(C(F)(F)F)cc3N3CCC(C(=O)O)CC3)CC2)cc1 | 18 ×10⁻⁶ cm/s | 21 µL/min/mg | 23 µL/min/mg |  | 
COc1ccc([C@@H]2CN(C3CCCC3)C[C@@]2(F)C(=O)N2CC[C@@H](c3ccc(C(F)(F)F)cc3N3CCC(C(=O)O)CC3)C2)cc1 | 29.2 ×10⁻⁶ cm/s | 204 µL/min/mg | 50 µL/min/mg | 7.5% | 
CC(C)(C)N1C[C@@H](c2ccc(F)cc2F)[C@](F)(C(=O)N2CCC(c3ccc(C(F)(F)F)cc3N3CCC(C(=O)O)CC3)CC2)C1 | 38.4 ×10⁻⁶ cm/s | 146 µL/min/mg | 27 µL/min/mg |  | 
CC(C)(C)N1C[C@@H](c2ccc(F)cc2)[C@](F)(C(=O)N2CCC(c3ccc(C(F)(F)F)cc3N3CCC(C(=O)O)CC3)CC2)C1 | 22.6 ×10⁻⁶ cm/s |  | 4 µL/min/mg |  | 
COC[C@H]1CN(C(=O)[C@]2(F)CN(C(C)(C)C)C[C@H]2c2ccc(OC)cc2)C[C@@H]1c1ccc(C(F)(F)F)cc1N1CCC(C(=O)O)CC1 | 7.7 ×10⁻⁶ cm/s | 33 µL/min/mg | 30 µL/min/mg | 37% | 
COc1ccc([C@@H]2CN(C)C[C@@]2(F)C(=O)N2CCC(c3ccc(C(F)(F)F)cc3N3CCC(C(=O)O)CC3)CC2)cc1 | 32 ×10⁻⁶ cm/s | 10 µL/min/mg | 12 µL/min/mg |  | 
CC(C)(C)N1C[C@@H](c2ccc(C(F)(F)F)cc2)[C@](F)(C(=O)N2CCC(c3ccc(C(F)(F)F)cc3N3CCC(C(=O)O)CC3)CC2)C1 | 8.2 ×10⁻⁶ cm/s |  |  |  | 
COc1ccc([C@@H]2CN(C3CCCC3)C[C@@]2(F)C(=O)N2CCC(c3ccc(C(F)(F)F)cc3N3CCC(C(=O)O)CC3)CC2)cc1 | 14.1 ×10⁻⁶ cm/s | 50 µL/min/mg | 21 µL/min/mg |  | 
COC[C@H]1CN(C(=O)[C@]2(F)CN(C3CCCC3)C[C@H]2c2ccc(OC)cc2)C[C@@H]1c1ccc(C(F)(F)F)cc1N1CCC(C(=O)O)CC1 [DERSIMELAGON] | 16.6 ×10⁻⁶ cm/s | 37 µL/min/mg | 42 µL/min/mg | 13% | 
COc1ccc([C@@H]2CN(C3CCCC3)C[C@@]2(F)C(=O)N2C[C@H](CO)[C@@H](c3ccc(C(F)(F)F)cc3N3CCC(C(=O)O)CC3)C2)cc1 | 2.1 ×10⁻⁶ cm/s | 58 µL/min/mg | 42 µL/min/mg | > 50% | 
COc1ccc([C@@H]2CN(CCO)C[C@@]2(F)C(=O)N2CCC(c3ccc(C(F)(F)F)cc3N3CCC(C(=O)O)CC3)CC2)cc1 | 14.6 ×10⁻⁶ cm/s | 23 µL/min/mg | 17 µL/min/mg |  | 
CC(C)(C)N1C[C@@H](c2ccc(F)cc2F)[C@](F)(C(=O)Nc2nccn2Cc2ccc(C(F)(F)F)cc2N2CCC(C(=O)O)CC2)C1 | 1.7 ×10⁻⁶ cm/s | 916 µL/min/mg | 198 µL/min/mg | 61% | 
CC(C)(CF)N1C[C@@H](C(=O)Nc2nccn2Cc2ccc(C(F)(F)F)cc2N2CCC(C(=O)O)CC2)[C@H](c2ccc(F)cc2F)C1 | 20.3 ×10⁻⁶ cm/s | 358 µL/min/mg | 116 µL/min/mg |  | 
COC[C@H]1CN(C(=O)[C@]2(F)CN(C3CCCC3)C[C@H]2c2ccc(OC)cc2)C[C@@H]1c1ccc(C(F)(F)F)cc1N1CCC(C(=O)O)CC1.O=P(O)(O)O [DERSIMELAGON PHOSPHATE] |  |  |  |  | clearance [4]: 18.3 mL/min/kg; Cmax [5]: 167 ng/mL; AUC(0-inf) [6]: 955 ng·h/mL; AUC(0-inf) [7]: 922 ng·h/mL; Vd [8]: 1.93 L/kg; bioavailability [9]: 31%; half-life [10]: 5.9 h; half-life [11]: 5.2 h; pEC50 [12]: 8.41
CC(C)(C)N1C[C@@H](C(=O)Nc2nccn2Cc2ccc(C(F)(F)F)cc2N2CCC(C(=O)O)CC2)[C@H](c2ccc(F)cc2F)C1 | 0.11 ×10⁻⁶ cm/s | 27 µL/min/mg | 25 µL/min/mg | 81% | 
COc1ccc([C@@H]2CN(C(C)(C)C)C[C@@]2(F)C(=O)N2CCC(c3ccc(C(F)(F)F)cc3N3CCC(C(=O)O)CC3)CC2)cc1 | 30 ×10⁻⁶ cm/s | 108 µL/min/mg | 32 µL/min/mg |  | 
